# In patent publication US20240318141A1, “MATURATION AGENT” (Orizuru Therapeutics, Inc., priority 2021, published 2024):
# “And” between values parts separate entries of the source, which are not always exact repeats. Identical values can stand only once.
# How the values were obtained:
# Type in all cases: cell-based, human
# [1] = system: non-endocrine cells in insulin-producing cell population (QHJI-I14s04 iPS cell line); test: Cisplatin or docetaxel treatment in step 6), then extended culture in basal medium containing EGF (Example 2)
# Source text: The differentiation of a QHJI-I14s04 iPS cell line into an insulin-producing cell population was induced by the three-dimensional culture method using a bioreactor according to steps 1) to 6) described above and the previous report (Nature Biotechnology 2014; 32: 1121-1133). Specifically, the iPS cells were subjected to the first culture in a medium (DMEM/1% B-27 (INS+)/Penicillin Streptomycin/dimethyl sulfoxide) containing differentiation-inducing factors (GSK3β inhibitor, ROCK inhibitor and low dose of activin A) under conditions causing action of insulin, and subsequently subjected to the second culture in a medium (DMEM/1% B-27 (INS−)/Penicillin Streptomycin/dimethyl sulfoxide) containing a differentiation-inducing factor (low dose of activin A) under conditions causing no action of insulin to obtain a definitive endoderm cell population. Further, a pancreatic endocrine progenitor cell population obtained by the induction of differentiation from the definitive endoderm cell population was cultured in a medium (Improved MEM/1% B-27 (INS+)/Penicillin Streptomycin) containing differentiation-inducing factors (ALK5 inhibitor II, T3, LDN, Y-secretase inhibitor RO, and ascorbic acid) and FGF receptor 1 inhibitor (PD-166866) to obtain an insulin-producing cell population.
# An insulin-producing cell population obtained without the addition of cisplatin and docetaxel was used as a control cell population and subjected to extended culture in the same manner as above.
# Marker protein expression (PDX1, CHGA, and Ki67) in each insulin-producing cell population before the start of and after the completion of extended culture was measured by flow cytometry. Samples after the completion of extended culture were collected by sampling three times from the same culture container. The number of cells was measured in an automatic cell counter at the time of sample preparation for flow cytometry, and the total number of cells per mL of the bioreactor was calculated. The number of CHGA-positive cells, the number of PDX1-positive and CHGA-negative cells, and the number of PDX1-negative and CHGA-negative cells were calculated from the obtained total number of cells and the flow cytometry results.
# [2] = system: insulin-producing cell population (QHJI-114s04 iPS cell line); test: Marker protein expression by flow cytometry of insulin-producing cell population prepared by addition of docetaxel (Example 3)
# Source text: The differentiation of a QHJI-114s04 iPS cell line into insulin-producing cells was induced by the three-dimensional culture method using a bioreactor and a multiwell plate according to steps 1) to 6) described above and the previous report (Nature Biotechnology 2014; 32: 1121-1133). Specifically, the iPS cells were subjected to the first culture in a medium (DMEM/1% B-27 (INS+)/Penicillin Streptomycin/dimethyl sulfoxide) containing differentiation-inducing factors (GSK3β inhibitor, ROCK inhibitor and low dose of activin A) under conditions causing action of insulin, and subsequently subjected to the second culture in a medium (DMEM/1% B-27 (INS−)/Penicillin Streptomycin/dimethyl sulfoxide) containing a differentiation-inducing factor (low dose of activin A) under conditions causing no action of insulin to obtain definitive endoderm cells. Further, a pancreatic endocrine progenitor cell population obtained by the induction of differentiation from the definitive endoderm cells was cultured in a medium (MCDB131/20 mM Glucose/NaHCO3/FAF-BSA/ITS-X/Glutamax/Penicillin Streptomycin) containing differentiation-inducing factors (ALK5 inhibitor II, T3, LDN, γ-secretase inhibitor RO, […]) to obtain an insulin-producing cell population. The exchange from the bioreactor to the multiwell plate was carried out in step 6).
# Marker protein expression (NKX6.1, C-peptide (insulin), CHGA, and Ki67) in each insulin-producing cell population after the completion of culture was measured by flow cytometry. Respective samples were collected by sampling from separate culture containers. The number of cells was measured in an automatic cell counter at the time of sample preparation for flow cytometry, and the total number of cells per well of the multiwell plate was calculated.
# [3] = system: non-endocrine cells in insulin-producing cell population (QHJI-114s04 iPS cell line); test: Docetaxel treatment of cell population comprising insulin-producing cells, then extended culture in basal medium containing EGF (Example 4); conditions: for proportions of PDX1+/CHGA− and PDX1−/CHGA− cells after extended culture involving EGF: with respect to control cell population
# Source text: The differentiation of a QHJI-114s04 iPS cell line into an insulin-producing cell population was induced by the three-dimensional culture method using a bioreactor according to steps 1) to 6) described above and the previous report (Nature Biotechnology 2014; 32: 1121-1133). Specifically, the iPS cells were subjected to the first culture in a medium (DMEM/1% B-27 (INS+)/Penicillin Streptomycin/dimethyl sulfoxide) containing differentiation-inducing factors (GSK3β inhibitor, ROCK inhibitor and low dose of activin A) under conditions causing action of insulin, and subsequently subjected to the second culture in a medium (DMEM/1% B-27 (INS−)/Penicillin Streptomycin/dimethyl sulfoxide) containing a differentiation-inducing factor (low dose of activin A) under conditions causing no action of insulin to obtain a definitive endoderm cell population. […] The exchange from the bioreactor to the multiwell plate was carried out in step 6).
# Marker protein expression (PDX1 and CHGA) in each cell population before the start of and after the completion of extended culture was measured by flow cytometry. Marker protein expression (NKX6.1, C-peptide (insulin), PDX1, and CHGA) in the cell population obtained 7 days after the start of step 6) was also measured by flow cytometry. Respective samples were collected by sampling from separate culture containers. The number of cells was measured in an automatic cell counter at the time of sample preparation for flow cytometry, and the total number of cells per well of the multiwell plate was calculated.
# [4] = after extended culture 4 weeks, EGF present, average of three samplings
# [5] = after extended culture 4 weeks, EGF present, single samplings
# [6] = after extended culture involving EGF, with respect to control cell population
# [7] = s6d11 (before extended culture); 3 μM cisplatin or 1 μM docetaxel for 7 days from day 4 of step 6)
# [8] = +Docetaxel 4 days from day 7 (1 μM), s6d11
# [9] = +Docetaxel 4 days from day 7, after extended culture, EGF absent
# [10] = +Docetaxel 4 days from day 7, after extended culture, EGF present
# [11] = +Docetaxel 7 days from day 4 (1 μM), s6d11
# [12] = +Docetaxel 7 days from day 4, after extended culture, EGF absent
# [13] = +Docetaxel 7 days from day 4, after extended culture, EGF present
smiles,measurement,setting,value
"CC(=O)O[C@@]12CO[C@@H]1C[C@H](O)[C@@]1(C)C(=O)[C@H](O)C3=C(C)[C@@H](OC(=O)[C@H](O)[C@@H](NC(=O)OC(C)(C)C)c4ccccc4)C[C@@](O)([C@@H](OC(=O)c4ccccc4)[C@H]21)C3(C)C [Docetaxel, (−)-(1S,2S,3R,4S,5R,7S,8S,10R,13S)-4-Acetoxy-2-benzoyloxy-5,20-epoxy-1,7,10-trihydroxy-9-oxotax-11-en-13-yl (2R,3S)-3-tert-butoxycarbonylamido-2-hydroxy-3-phenylpropionate]",population exhibiting marked increase by extended culture (table footnote),"[1]; 1 μM docetaxel, extended culture with EGF",No population exhibited marked increase by extended culture
same,"The number of cells CHGA+, average",[1]; [4],22 ×10^4 cells/mL
same,"The number of cells PDX+/CHGA−, average",[1]; [4],1.7 ×10^4 cells/mL
same,"The number of cells PDX−/CHGA−, average",[1]; [4],2.8 ×10^4 cells/mL
same,"Total number of cells, average",[1]; [4],27 ×10^4 cells/mL
same,The number of cells CHGA+,[1]; [5],21 ×10^4 cells/mL and 22 ×10^4 cells/mL and 24 ×10^4 cells/mL
same,The number of cells PDX+/CHGA−,[1]; [5],2.0 ×10^4 cells/mL and 1.5 ×10^4 cells/mL
same,The number of cells PDX−/CHGA−,[1]; [5],3.1 ×10^4 cells/mL and 2.7 ×10^4 cells/mL
same,Total number of cells,[1]; [5],26 ×10^4 cells/mL and 28 ×10^4 cells/mL
same,proportion of PDX1-negative and CHGA-negative (PDX1−/CHGA−) cells,[1]; [6],drastically decreased
same,proportion of PDX1-positive and CHGA-negative (PDX1+/CHGA−) cells,[1]; [6],drastically decreased
same,total number of cells after extended culture (in words),[1]; extended culture involving EGF,decreased
same,The number of cells CHGA+,[1]; [7],73 ×10^4 cells/mL
same,The number of cells PDX+/CHGA−,[1]; [7],1.3 ×10^4 cells/mL
same,The number of cells PDX−/CHGA−,[1]; [7],0.1 ×10^4 cells/mL
same,Total number of cells,[1]; [7],74 ×10^4 cells/mL
same,number of CHGA-positive endocrine cells after extended culture (in words),[1]; with respect to control cell population,not changed
same,increase of proportion of INS-positive and NKX6.1-positive cells,"[2]; 1 μM docetaxel, 7 days from day 4 of step 6), with respect to control cell population",about 10%
same,Total number of cells,"[2]; docetaxel treatment 1, 3 or 10 μM",not changed
same,abundance of CHGA-negative and Ki67-positive (CHGA−/Ki67+) cells,"[2]; medium with PD-166866, irrespective of presence or absence of docetaxel treatment, without extended culture",≤ 0.1%
same,action on proportion of INS-positive and NKX6.1-positive cells at higher concentration,[2]; up to the docetaxel concentration of 10 μM,not changed
same,population exhibiting marked increase by extended culture involving EGF (table footnote),[3]; +Docetaxel 4 days from day 7,No population exhibited marked increase by extended culture involving EGF
same,The number of cells CHGA+,[3]; [8],177 ×10^4 cells/well
same,The number of cells PDX+/CHGA−,[3]; [8],0.7 ×10^4 cells/well
same,The number of cells PDX−/CHGA−,[3]; [8],0.9 ×10^4 cells/well
same,Total number of cells,[3]; [8],178 ×10^4 cells/well
same,The number of cells CHGA+,[3]; [9],132 ×10^4 cells/well
same,The number of cells PDX+/CHGA−,[3]; [9],1.5 ×10^4 cells/well
same,The number of cells PDX−/CHGA−,[3]; [9],6.3 ×10^4 cells/well
same,Total number of cells,[3]; [9],140 ×10^4 cells/well
same,The number of cells CHGA+,[3]; [10],144 ×10^4 cells/well and 133 ×10^4 cells/well and 147 ×10^4 cells/well
same,The number of cells PDX+/CHGA−,[3]; [10],1.1 ×10^4 cells/well and 1.3 ×10^4 cells/well and 1.2 ×10^4 cells/well
same,The number of cells PDX−/CHGA−,[3]; [10],5.6 ×10^4 cells/well and 6.6 ×10^4 cells/well and 5.9 ×10^4 cells/well
same,Total number of cells,[3]; [10],151 ×10^4 cells/well and 141 ×10^4 cells/well and 154 ×10^4 cells/well
same,proportions of PDX1+/CHGA− and PDX1−/CHGA− cells after extended culture involving EGF,[3]; +Docetaxel 4 days from day 7,drastically decreased
same,population exhibiting marked increase by extended culture involving EGF (table footnote),[3]; +Docetaxel 7 days from day 4,No population exhibited marked increase by extended culture involving EGF
same,The number of cells CHGA+,[3]; [11],209 ×10^4 cells/well
same,The number of cells PDX+/CHGA−,[3]; [11],0.4 ×10^4 cells/well
same,The number of cells PDX−/CHGA−,[3]; [11],0.8 ×10^4 cells/well
same,Total number of cells,[3]; [11],210 ×10^4 cells/well
same,The number of cells CHGA+,[3]; [12],126 ×10^4 cells/well
same,The number of cells PDX+/CHGA−,[3]; [12],1.5 ×10^4 cells/well
same,The number of cells PDX−/CHGA−,[3]; [12],5.0 ×10^4 cells/well
same,Total number of cells,[3]; [12],132 ×10^4 cells/well
same,The number of cells CHGA+,[3]; [13],132 ×10^4 cells/well and 127 ×10^4 cells/well and 159 ×10^4 cells/well
same,The number of cells PDX+/CHGA−,[3]; [13],0.8 ×10^4 cells/well and 1.5 ×10^4 cells/well
same,The number of cells PDX−/CHGA−,[3]; [13],4.7 ×10^4 cells/well and 2.9 ×10^4 cells/well and 4.8 ×10^4 cells/well
same,Total number of cells,[3]; [13],138 ×10^4 cells/well and 165 ×10^4 cells/well
same,proportions of PDX1+/CHGA− and PDX1−/CHGA− cells after extended culture involving EGF,[3]; +Docetaxel 7 days from day 4,drastically decreased
